In ChEMBL document CHEMBL1938312, “Design and combinatorial synthesis of a novel kinase-focused library using click chemistry-based fragment assembly” (Bioorg Med Chem Lett, 2012):
The source made the active and inactive calls. No cut-off for these calls is given here.

What was measured:
[1] = biological target: Tyrosine-protein kinase ABL1 (Homo sapiens) (UniProt P00519); assay: Inhibition of Abl at 10 uM by colorimetric analysis
[2] = biological target: Epidermal growth factor receptor (Homo sapiens) (UniProt P00533); assay: Inhibition of EGFR at 10 uM by colorimetric analysis
[3] = biological target: Fibroblast growth factor receptor 1 (Homo sapiens) (UniProt P11362); assay: Inhibition of FGFR1 at 10 uM by colorimetric analysis
[4] = biological target: Insulin-like growth factor 1 receptor (Homo sapiens) (UniProt P08069); assay: Inhibition of IGF1R at 10 uM by colorimetric analysis
[5] = biological target: T1, Tyrosine-protein kinase ITK/TSK (Homo sapiens) (UniProt Q08881); assay: Inhibition of ITK at 10 uM by colorimetric analysis
T1 sequence (whole entry): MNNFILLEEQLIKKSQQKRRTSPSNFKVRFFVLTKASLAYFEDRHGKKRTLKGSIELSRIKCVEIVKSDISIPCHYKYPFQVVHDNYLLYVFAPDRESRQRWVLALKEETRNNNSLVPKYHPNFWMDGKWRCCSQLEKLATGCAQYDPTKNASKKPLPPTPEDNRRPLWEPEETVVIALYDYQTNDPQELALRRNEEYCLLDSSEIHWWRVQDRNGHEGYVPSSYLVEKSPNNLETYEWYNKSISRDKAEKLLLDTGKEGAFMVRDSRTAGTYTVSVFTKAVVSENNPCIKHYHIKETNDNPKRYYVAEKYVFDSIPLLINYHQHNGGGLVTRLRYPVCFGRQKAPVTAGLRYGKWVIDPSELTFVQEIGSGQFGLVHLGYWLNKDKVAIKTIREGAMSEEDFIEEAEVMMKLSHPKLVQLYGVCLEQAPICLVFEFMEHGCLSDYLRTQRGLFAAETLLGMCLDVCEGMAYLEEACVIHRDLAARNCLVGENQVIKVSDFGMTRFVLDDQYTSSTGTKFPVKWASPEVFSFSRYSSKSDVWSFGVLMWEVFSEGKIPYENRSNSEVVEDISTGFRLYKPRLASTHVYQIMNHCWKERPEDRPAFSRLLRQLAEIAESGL

[6] = biological target: Platelet-derived growth factor receptor alpha (Homo sapiens) (UniProt P16234); assay: Inhibition of PDGFRalpha at 10 uM by colorimetric analysis
[7] = biological target: RAC-alpha serine/threonine-protein kinase (Homo sapiens) (UniProt P31749); assay: Inhibition of AKT1 at 10 uM by colorimetric analysis
[8] = biological target: 5'-AMP-activated protein kinase catalytic subunit alpha-1 (Homo sapiens) (UniProt Q13131); assay: Inhibition of AMPKalpha1 at 10 uM by colorimetric analysis
[9] = biological target: T2, Aurora kinase A (Homo sapiens) (UniProt O14965); assay: Inhibition of Aurora A at 10 uM by colorimetric analysis
T2 sequence (whole entry): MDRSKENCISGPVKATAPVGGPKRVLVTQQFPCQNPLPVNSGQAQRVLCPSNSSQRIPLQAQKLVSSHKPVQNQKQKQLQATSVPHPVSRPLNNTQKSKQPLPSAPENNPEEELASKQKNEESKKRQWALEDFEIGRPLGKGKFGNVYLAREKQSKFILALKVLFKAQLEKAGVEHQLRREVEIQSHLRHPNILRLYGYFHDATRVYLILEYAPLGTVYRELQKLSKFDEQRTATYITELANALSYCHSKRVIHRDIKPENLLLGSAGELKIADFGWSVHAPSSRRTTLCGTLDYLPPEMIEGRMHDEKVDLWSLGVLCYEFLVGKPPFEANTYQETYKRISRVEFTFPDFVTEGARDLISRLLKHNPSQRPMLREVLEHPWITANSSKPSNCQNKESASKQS

[10] = biological target: T3, Serine/threonine-protein kinase Chk1 (Homo sapiens) (UniProt O14757); assay: Inhibition of CHK1 at 10 uM by colorimetric analysis
T3 sequence (whole entry): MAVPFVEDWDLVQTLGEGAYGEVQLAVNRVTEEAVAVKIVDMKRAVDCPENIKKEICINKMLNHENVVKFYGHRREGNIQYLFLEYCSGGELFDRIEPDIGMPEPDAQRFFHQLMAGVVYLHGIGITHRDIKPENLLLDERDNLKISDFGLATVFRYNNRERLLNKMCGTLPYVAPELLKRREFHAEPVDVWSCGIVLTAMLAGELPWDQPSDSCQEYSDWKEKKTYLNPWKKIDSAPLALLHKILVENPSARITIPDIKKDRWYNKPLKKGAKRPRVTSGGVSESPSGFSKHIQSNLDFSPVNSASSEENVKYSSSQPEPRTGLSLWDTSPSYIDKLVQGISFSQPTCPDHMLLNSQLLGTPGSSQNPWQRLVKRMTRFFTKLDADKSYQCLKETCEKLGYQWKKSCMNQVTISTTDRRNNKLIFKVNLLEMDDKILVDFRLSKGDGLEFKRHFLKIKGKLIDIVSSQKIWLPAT

[11] = biological target: Casein kinase I isoform epsilon (Homo sapiens) (UniProt P49674); assay: Inhibition of CK1epsilon at 10 uM by colorimetric analysis
[12] = biological target: T4, Serine/threonine-protein kinase Nek2 (Homo sapiens) (UniProt P51955); assay: Inhibition of NEK2 at 10 uM by colorimetric analysis
T4 sequence (whole entry): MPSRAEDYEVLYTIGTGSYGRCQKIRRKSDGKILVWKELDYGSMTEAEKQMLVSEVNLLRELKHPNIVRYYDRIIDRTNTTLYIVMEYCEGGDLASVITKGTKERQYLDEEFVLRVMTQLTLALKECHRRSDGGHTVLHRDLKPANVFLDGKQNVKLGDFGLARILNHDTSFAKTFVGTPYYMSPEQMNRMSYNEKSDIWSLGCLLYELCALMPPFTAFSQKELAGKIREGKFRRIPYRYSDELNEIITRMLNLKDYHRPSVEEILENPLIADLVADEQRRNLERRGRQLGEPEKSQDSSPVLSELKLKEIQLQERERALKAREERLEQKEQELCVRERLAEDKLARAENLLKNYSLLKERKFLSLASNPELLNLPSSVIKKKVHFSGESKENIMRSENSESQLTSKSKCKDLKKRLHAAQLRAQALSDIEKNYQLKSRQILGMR

[13] = biological target: Ribosomal protein S6 kinase beta-1 (Homo sapiens) (UniProt P23443); assay: Inhibition of p70S6K at 10 uM by colorimetric analysis
[14] = biological target: Serine/threonine-protein kinase PAK 4 (Homo sapiens) (UniProt O96013); assay: Inhibition of PAK4 at 10 uM by colorimetric analysis
[15] = biological target: Serine/threonine-protein kinase pim-1 (Homo sapiens) (UniProt P11309); assay: Inhibition of PIM1 at 10 uM by colorimetric analysis
[16] = biological target: cAMP-dependent protein kinase catalytic subunit alpha (Homo sapiens) (UniProt P17612); assay: Inhibition of PKACa at 10 uM by colorimetric analysis

Chain of 5'-AMP-activated protein kinase catalytic subunit alpha-1 (Homo sapiens) (Q13131 whole entry, looked up): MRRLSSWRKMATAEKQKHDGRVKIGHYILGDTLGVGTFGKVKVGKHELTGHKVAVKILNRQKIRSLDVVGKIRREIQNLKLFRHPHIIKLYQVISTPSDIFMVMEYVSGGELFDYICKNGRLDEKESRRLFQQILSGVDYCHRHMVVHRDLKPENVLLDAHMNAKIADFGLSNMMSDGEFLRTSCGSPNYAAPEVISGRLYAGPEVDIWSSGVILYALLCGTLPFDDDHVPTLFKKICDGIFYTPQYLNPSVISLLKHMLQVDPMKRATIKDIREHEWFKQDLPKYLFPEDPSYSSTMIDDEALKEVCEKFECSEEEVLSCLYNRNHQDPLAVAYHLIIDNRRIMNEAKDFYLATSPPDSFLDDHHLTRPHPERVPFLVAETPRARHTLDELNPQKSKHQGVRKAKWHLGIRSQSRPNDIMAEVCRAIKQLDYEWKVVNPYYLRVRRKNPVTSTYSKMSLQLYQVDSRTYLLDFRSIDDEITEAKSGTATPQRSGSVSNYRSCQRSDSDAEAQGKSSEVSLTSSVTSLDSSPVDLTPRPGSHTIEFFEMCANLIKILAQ
Chain of Casein kinase I isoform epsilon (Homo sapiens) (P49674 whole entry, looked up, canonical isoform): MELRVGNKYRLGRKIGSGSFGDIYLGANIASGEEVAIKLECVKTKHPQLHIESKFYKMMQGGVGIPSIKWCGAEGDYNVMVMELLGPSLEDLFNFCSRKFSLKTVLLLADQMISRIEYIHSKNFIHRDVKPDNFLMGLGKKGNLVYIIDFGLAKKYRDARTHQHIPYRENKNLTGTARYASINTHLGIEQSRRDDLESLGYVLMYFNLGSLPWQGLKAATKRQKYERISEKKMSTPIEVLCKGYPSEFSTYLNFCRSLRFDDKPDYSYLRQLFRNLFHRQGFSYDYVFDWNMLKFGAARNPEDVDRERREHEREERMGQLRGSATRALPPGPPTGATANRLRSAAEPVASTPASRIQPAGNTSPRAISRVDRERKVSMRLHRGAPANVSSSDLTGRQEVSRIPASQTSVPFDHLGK
Chain of RAC-alpha serine/threonine-protein kinase (Homo sapiens) (P31749 whole entry): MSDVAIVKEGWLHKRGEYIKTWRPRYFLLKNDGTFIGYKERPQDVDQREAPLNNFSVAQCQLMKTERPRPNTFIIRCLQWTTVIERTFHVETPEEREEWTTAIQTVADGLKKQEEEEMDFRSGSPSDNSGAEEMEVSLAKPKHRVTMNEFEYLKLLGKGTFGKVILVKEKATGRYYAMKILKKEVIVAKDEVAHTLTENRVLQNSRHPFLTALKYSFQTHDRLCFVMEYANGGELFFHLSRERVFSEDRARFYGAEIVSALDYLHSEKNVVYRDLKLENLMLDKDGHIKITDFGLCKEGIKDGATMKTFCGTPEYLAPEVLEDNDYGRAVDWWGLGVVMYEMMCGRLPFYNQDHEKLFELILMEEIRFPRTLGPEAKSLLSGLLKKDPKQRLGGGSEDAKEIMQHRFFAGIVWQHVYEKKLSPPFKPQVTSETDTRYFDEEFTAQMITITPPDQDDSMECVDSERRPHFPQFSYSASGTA
Chain of Fibroblast growth factor receptor 1 (Homo sapiens) (P11362 22-822 limits assumed): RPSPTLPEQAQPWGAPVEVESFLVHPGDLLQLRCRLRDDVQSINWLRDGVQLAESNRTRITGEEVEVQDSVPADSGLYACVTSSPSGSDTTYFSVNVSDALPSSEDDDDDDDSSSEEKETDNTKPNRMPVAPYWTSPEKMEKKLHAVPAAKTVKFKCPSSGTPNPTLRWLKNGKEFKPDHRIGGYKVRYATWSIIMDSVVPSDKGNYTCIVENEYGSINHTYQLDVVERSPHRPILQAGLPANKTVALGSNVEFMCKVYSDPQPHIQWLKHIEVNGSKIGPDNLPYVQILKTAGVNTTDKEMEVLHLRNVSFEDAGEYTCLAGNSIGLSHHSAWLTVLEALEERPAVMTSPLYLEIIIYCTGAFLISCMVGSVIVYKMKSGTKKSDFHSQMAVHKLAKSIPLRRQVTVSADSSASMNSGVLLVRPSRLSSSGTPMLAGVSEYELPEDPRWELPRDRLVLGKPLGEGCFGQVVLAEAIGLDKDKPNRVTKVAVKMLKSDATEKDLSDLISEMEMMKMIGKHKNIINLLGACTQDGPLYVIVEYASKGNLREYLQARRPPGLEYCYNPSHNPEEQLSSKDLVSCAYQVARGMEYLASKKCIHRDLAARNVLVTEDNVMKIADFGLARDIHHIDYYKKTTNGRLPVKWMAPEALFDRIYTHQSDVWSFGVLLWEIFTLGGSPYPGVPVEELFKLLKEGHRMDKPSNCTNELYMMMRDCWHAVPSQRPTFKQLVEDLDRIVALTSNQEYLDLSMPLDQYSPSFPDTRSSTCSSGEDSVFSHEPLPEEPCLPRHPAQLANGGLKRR
Chain of Platelet-derived growth factor receptor alpha (Homo sapiens) (P16234 whole entry): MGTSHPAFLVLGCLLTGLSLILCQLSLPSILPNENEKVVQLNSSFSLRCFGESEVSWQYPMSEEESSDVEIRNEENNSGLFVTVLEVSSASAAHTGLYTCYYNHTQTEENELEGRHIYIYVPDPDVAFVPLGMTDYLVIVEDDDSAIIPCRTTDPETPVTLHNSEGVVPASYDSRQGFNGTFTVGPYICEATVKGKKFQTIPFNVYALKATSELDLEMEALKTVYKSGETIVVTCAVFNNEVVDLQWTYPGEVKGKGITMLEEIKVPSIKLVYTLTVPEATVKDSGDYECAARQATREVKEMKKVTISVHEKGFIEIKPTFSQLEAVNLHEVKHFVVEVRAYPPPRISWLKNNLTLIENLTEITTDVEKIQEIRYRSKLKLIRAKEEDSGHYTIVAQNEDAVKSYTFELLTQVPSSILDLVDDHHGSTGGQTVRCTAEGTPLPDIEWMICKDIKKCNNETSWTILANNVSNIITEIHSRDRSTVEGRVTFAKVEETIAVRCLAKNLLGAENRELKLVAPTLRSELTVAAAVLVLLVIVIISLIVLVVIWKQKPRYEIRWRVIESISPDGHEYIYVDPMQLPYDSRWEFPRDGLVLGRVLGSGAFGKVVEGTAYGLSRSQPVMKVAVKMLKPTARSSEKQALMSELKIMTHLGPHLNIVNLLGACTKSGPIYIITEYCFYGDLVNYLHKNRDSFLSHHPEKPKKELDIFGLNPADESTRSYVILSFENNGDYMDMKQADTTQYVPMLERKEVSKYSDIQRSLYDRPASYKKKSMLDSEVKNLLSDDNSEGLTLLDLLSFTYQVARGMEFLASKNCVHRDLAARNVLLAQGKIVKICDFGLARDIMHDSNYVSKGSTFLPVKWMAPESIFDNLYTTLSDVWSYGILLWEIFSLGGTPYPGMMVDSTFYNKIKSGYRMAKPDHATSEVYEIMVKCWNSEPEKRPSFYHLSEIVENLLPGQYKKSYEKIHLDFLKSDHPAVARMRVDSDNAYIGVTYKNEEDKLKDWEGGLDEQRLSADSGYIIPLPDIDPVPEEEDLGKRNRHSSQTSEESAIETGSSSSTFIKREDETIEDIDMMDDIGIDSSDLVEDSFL
Chain of Insulin-like growth factor 1 receptor (Homo sapiens) (P08069 31-736 limits assumed): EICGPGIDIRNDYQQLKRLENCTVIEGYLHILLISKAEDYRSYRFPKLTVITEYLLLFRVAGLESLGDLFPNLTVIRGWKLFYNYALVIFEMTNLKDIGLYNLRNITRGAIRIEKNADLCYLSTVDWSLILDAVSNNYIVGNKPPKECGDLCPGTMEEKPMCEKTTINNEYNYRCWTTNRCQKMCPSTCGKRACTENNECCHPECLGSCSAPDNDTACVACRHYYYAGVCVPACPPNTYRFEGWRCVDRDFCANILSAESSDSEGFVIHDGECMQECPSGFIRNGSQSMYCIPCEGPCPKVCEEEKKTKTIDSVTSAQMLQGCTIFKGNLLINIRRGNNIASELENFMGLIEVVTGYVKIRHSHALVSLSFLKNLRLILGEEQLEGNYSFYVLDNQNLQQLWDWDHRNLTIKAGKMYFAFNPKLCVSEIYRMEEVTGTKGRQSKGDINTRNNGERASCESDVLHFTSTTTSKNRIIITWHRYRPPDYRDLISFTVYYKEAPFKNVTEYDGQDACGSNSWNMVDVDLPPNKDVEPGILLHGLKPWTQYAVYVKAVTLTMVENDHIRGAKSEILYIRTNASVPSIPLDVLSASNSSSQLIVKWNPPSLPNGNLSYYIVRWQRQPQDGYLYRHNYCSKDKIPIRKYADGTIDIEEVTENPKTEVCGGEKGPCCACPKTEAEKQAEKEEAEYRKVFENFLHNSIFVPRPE
Chain of Insulin-like growth factor 1 receptor (Homo sapiens) (P08069 741-1367 limits assumed): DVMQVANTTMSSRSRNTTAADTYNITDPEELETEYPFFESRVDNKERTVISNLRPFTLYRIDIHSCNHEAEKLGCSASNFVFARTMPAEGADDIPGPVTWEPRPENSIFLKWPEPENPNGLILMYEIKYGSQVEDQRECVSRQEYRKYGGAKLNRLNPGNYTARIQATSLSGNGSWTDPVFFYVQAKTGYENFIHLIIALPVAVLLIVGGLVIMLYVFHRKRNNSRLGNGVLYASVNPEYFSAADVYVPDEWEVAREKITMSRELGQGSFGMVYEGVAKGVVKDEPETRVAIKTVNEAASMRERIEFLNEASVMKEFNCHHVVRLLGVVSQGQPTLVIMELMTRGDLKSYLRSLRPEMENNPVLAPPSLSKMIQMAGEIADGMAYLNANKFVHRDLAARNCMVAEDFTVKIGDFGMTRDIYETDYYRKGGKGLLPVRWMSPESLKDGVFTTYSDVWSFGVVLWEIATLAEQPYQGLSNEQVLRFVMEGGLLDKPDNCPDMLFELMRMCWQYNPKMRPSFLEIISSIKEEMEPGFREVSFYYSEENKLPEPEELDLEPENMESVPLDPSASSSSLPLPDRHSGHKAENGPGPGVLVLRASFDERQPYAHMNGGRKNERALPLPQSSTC
Chain of Serine/threonine-protein kinase pim-1 (Homo sapiens) (P11309 whole entry, looked up): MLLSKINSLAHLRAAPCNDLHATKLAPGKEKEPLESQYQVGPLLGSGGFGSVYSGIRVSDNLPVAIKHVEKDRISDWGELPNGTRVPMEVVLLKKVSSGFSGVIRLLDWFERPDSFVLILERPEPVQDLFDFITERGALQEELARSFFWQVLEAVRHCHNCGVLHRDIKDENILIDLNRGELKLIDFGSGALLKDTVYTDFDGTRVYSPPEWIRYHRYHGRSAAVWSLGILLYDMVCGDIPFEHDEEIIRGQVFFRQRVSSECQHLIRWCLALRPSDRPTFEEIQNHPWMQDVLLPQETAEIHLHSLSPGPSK

inhibition [1] | inhibition [2] | inhibition [3] | inhibition [4] | inhibition [5] | inhibition [6] | inhibition [7] | inhibition [8] | inhibition [9] | inhibition [10] | inhibition [11] | inhibition [12] | inhibition [13] | inhibition [14] | inhibition [15] | inhibition [16] | Structure (SMILES)
inactive | inactive | inactive | inactive | inactive | inactive | Active | Active | Active | Active | Active | Active | Active | Active | Active | Active | Clc1cccc(-n2nncc2-c2ccncc2)c1
inactive | inactive | inactive | inactive | inactive | inactive | Active | Active | Active | Active | Active | Active | Active | Active | Active | Active | Clc1ccc(-n2nncc2-c2ccncc2)cc1
inactive | inactive | inactive | inactive | inactive | inactive | Active | Active | Active | Active | Active | Active | Active | Active | Active | Active | Clc1cccc(-n2cc(-c3ccncc3)nn2)c1
inactive | inactive | inactive | inactive | inactive | inactive | Active | Active | Active | Active | Active | Active | Active | Active | Active | Active | Clc1ccc(-n2cc(-c3ccncc3)nn2)cc1
